Values quoted from earlier work as cited in paper PMC2923200, “Identification of a Cardiac Specific Protein Transduction Domain by In Vivo Biopanning Using a M13 Phage Peptide Display Library in Mice” (PLoS ONE, 2010).

Settings: in vitro phage display screening by other investigators
Text: However, it is unclear how the ability of CTP to interact with these cellular components in vitro facilitates transduction of cardiac specific tissue in vivo. We currently are examining whether the transduction process is energy independent as well as whether it involves endocytosis. Also, the s ...

APWHLSSQYSRT [CTP]
affinity for binding to apatite-based, bone-like minerals: high affinity
affinity for binding to two specific sulfated carbohydrates: high affinity
